Measured values reported in patent US20220162257A1, “3ALPHA, 5BETA-NEUROACTIVE STEROIDS FOR THE TREATMENT OF EPILEPSY AND SEIZURE DISEASES” (USTAV ORGANICKE CHEMIE A BIOCHEMIE AV CR, V. V. I., priority 2019, published 2022).

Key:
Type in all cases: in vivo, rat
[1] = test system: PTZ-induced seizures in 12- and 25-day-old rats; assay: PTZ-induced generalized tonic-clonic seizures in immature rats
Experimental: (§1) Anticonvulsant effect of compounds was evaluated in two models of epileptic seizures in immature rats (PTZ model and 6 Hz model). PTZ convulsions were tested in 12- and 25-day-old rats, 6 Hz-induced seizures in 15- and 25-day-old rats. Young adult rats (P60) were also used in either test. Day of birth was taken as P0. Experiments evaluating precognitive effect were performed in adult male rats of the Wistar and Long Evans strain (3 months old, b.w. 300-400 g). All animals were obtained from a breeding facility of Institute of Physiology CAS (certificate No. 1396/2014-MZE-17214) Animals were held in standard conditions (21±1° C., humidity 50-60%, light regime 12/12) with unrestricted access to food and water. All manipulations with animals were performed according to the https://nc3rs.org.uk/arrive-guidelines and to Czech Animal Protection Law 246/1992 Sb. And international directives (EU Directive 2010/63/EU for animals' experiments).
(§2) Two age groups of immature male Wistar rats were used in either experiment. In PTZ model P12 corresponding by a maturation of the brain to early postnatal human babies, i.e. to the period where children epileptic encephalopathy mostly resistant to present pharmacotherapy start to appear. The other group—P25 animals corresponds with school-age children. Generalized tonic-clonic seizures were elicited by a subcutaneous injection of PTZ in a dose of 100 mg/kg. The 6 Hz model was tested in P15 (at this age eyes are open and it is not necessary to surgically distract lids). Biphasic pulses with […] were applied transcorneally for 3 s by a constant current stimulator of Ugo Basile company. PTZ induced generalized seizures represent a model of human generalized tonic-clonic seizures, seizures elicited by 6 Hz stimulation are generally taken as a model of temporal (psychomotor, complex partial) seizures. Differences in latencies and seizure severity were evaluated by ANOVA with a subsequent pairwise comparison by Holm-Sidak test. Incidence of seizures were evaluated by Fischer exact test. Critical p value was set at p=0.05.
Anticonvulsant effect was studied in 12- and 25-day-old male Wistar rats. Steroid derivatives were administered at doses of 1, 5 and 10 mg/kg i.p. 20 min before the administration of PTZ (100 mg/kg s.c.).

[2] = test system: generalized tonic-clonic seizures in adult rats; assay: seizures in young adult (P60) rats, FIGS. 6A-6C
Experimental: FIGS. 6A-6C show anticonvulsant effect of a substance from Example 1 in a model of seizures elicited by 6 Hz transcorneal electrical stimulation in young adult (P60) male rats. Steroid substance in dose 1, 5, or 10 mg/kg i.p. (x-axis) was administered 20 min before the first stimulation. Graph 6A (y-axis in %)—incidence of complete (GTCS) and incomplete, i.e. without the tonic phase (GCS) generalized seizures; graph 6B (y-axis in %)—incidence of minimal clonic seizures; graph 6C (y-axis in s)—latencies of generalized seizures.
as §1
GTCS were present in only one rat after the 10-mg/kg dose.

[3] = test system: seizures elicited by 6 Hz stimulation in rats; assay: 6 Hz transcorneal electrical stimulation seizure model in rats
Experimental: as §1, §2
Younger group was formed by 15-day-old animals—the animals at this age have open eyes and it is not necessary to distract eyelids surgically. The other group was 25 days old. Sensitivity of these two age groups is different, therefore we used current intensities of 40, 60, and 80 mA in 15-day-old rats and 20, 40, and 60 mA in the 25-day-old animals. Stimulations were made in 20-min intervals, 10 min before each stimulation a drop of mesocaine into either eye was used as a local anesthetic. Steroid derivatives in a dose of 10 mg/kg i.p. were administered 20 min before the first stimulation. Seizures elicited by 60-mA intensity of stimulation current were suppressed, those elicited by 80 mA not.

latency to feed in rats = assay: Novelty suppressed feeding model (NSF)
Experimental: as §1
Behavioral models of the affective disorders are based on exposure to stress. Two behavioral tests were performed: the Elevated plus maze test (EPM, Nat. Protoc. 2007, 2, 322) and the Novelty suppressed feeding model (NSF, Interdiscip. Toxicol. 2017, 10, 40).
In the NSF test, the Compound from Example 1 was administered i.p. 30 min before the test at doses 0.1; 0.3; 1; 3 and 10 mg/kg.

memory in rats = assay: Passive avoidance test, intact animals and dizocilpine (MK-801) schizophrenia-like behavior
Experimental: as §1
Schizophrenia-like behavior was induced by i.p. administration of dizocilpine (MK-801) at a dose of 0.1 mg/kg. The effect of the Compound from Example 1 was tested in Passive avoidance test (Psychopharmacology (Berl). 2016, 233, 2077). This test allows to study memory and learning ability. The Compound from Example 1 was applied for 30 min i.p. before the task in doses of 0.1; 1 and 3 mg/kg.

`CC(=O)[C@H]1CC[C@H]2[C@@H]3CC[C@@H]4C[C@H](OC(=O)C5CCC(=O)N5)CC[C@]4(C)[C@H]3CC[C@]12C` (stereo partly drawn) [Example 1, (3R,5R,8R,9S,10S,13S,14S,17S)-17-Acetyl-10,13-dimethylhexadecahydro-1H-cyclopenta[a]fenantren-3-yl 5-oxopyrrolidine-2-carboxylate] was tested, and the “seizure severity (5-point scale)” value ([1]; P12 and P25 rats, 1, 5, 10 mg/kg i.p.) was “copied the presence of GTCS”, the “tonic phase of GTCS” value ([1]; P12 rats, 1 mg/kg i.p.) was “suppressed the tonic phase of GTCS” and the incidence of seizures ([1]; P12 rats, 5 mg/kg i.p.) was “significantly decrease the incidence of seizures”. For the same compound, the incidence of seizures ([1]; P12 rats, 10 mg/kg i.p.) was “completely suppressed the seizures”, the “latencies to GTCS” value ([1]; P12 rats, 1 and 5 mg/kg i.p.) was “significantly prolonged” and the latencies of seizures ([1]; P25 rats, 1 mg/kg i.p.) was “not changed”. For the same compound, the animals with seizures ([1]; P25 rats, 5 and 10 mg/kg i.p.) was “one animal only”, the “incidence of GTCS” value ([1]; P25 rats, 5 and 10 mg/kg i.p.) was “decrease the incidence of GTCS without a selective effect against the tonic phase” and the “latency to GTCS” value ([2]; 5 mg/kg i.p.) was “significantly decreased”. The “animals with GTCS” value ([2]; 10 mg/kg i.p.) was “only one rat”, the “incidence of generalized tonic-clonic seizures (GTCS)” value ([2]; 10 mg/kg i.p.) was “significantly decreased the incidence” and the minimal clonic seizures ([2]; 10 mg/kg i.p.) was “remained unaffected”. The seizure severity ([2]; 5 and 10 mg/kg i.p.) was “significantly decreased”, the seizure severity ([3]; P15 rats, 10 mg/kg i.p.) was “not affected” and the duration of seizures ([3]; P15 rats, 60 and 80 mA, 10 mg/kg i.p.) was “significantly shortened at both current intensities”. For the same compound, the incidence of seizures ([3]; P15 rats, 60 mA, 10 mg/kg i.p.) was “suppressed”, the “incidence of seizures (suppressed or not)” value ([3]; P15 rats, 80 mA, 10 mg/kg i.p.) was “not” and the duration of seizures ([3]; P25 rats, 10 mg/kg i.p.) was “significantly shorter”. The incidence of seizures ([3]; P25 rats, 10 mg/kg i.p.) was “tendency to a decreased incidence of seizures”, the “seizure intensity (severity)” value ([3]; P25 rats, 10 mg/kg i.p.) was “lower intensity” and the “changes of the threshold intensity” value ([3]; adult (P60) rats, 1, 5, 10 mg/kg i.p., tendency after 10 mg/kg) was “did not reach the level of significance”. The “latency to feed (anxiolytic parameter)” value (latency to feed in rats; 0.3 mg/kg i.p., 30 min before the test) was “significant decrease in latency to feed”, the “latency of feed intake” value (latency to feed in rats; 1 and 3 mg/kg i.p.) was “trend to decrease the latency of feed intake” and the “memory damage measured 1 h after the stimulus” value (memory in rats; dizocilpine 0.1 mg/kg, compound 0.1 mg/kg i.p.) was “prevented memory damage”. The “memory one hour after the aversive stimulus” value (memory in rats; intact animals, 0.1, 1 and 3 mg/kg i.p.) was “does not impair memory”.
